Literature values as cited in US7750010B2, “Tricyclic anilide spirohydantion CGRP receptor antagonists” (Merck Sharp & Dohme Corp., priority 2004, dated 2010).
No end group written: not given here.

Experiments:
middle meningeal artery = conditions: rats, electrical stimulation of the dura mater, prior administration
facial blood flow [1] = conditions: rat, trigeminal ganglion stimulation
facial blood flow [2] = conditions: marmoset, electrical stimulation of the trigeminal ganglion

## CGRP(8-37): a fragment of CGRP that lacks seven N-terminal amino acid residues; a peptide CGRP antagonist (VTHRLAGLLSRSGGVVKNNFVPTNVGSKAF; ends and bridges not checked; UniProt P06881 90-119, looked up, fragment)
Middle meningeal artery
  effect on increase in diameter of the middle meningeal artery: blocked
Facial blood flow [1]
  effect on increased facial blood flow: inhibited

## NCCCC[C@H](NC(=O)[C@@H](Cc1cc(Br)c(O)c(Br)c1)NC(=O)N1CCC(N2Cc3ccccc3NC2=O)CC1)C(=O)N1CCN(c2ccncc2)CC1 [BIBN4096BS]
Facial blood flow [2]
  effect on increase in facial blood flow: could be blocked
